The results in this text go back to patent US20150189876A1, “CROP ENHANCEMENT COMPOSITIONS” (Syngenta Participations AG, priority 2012, published 2015).

Read-outs that look alike come from different tables or passages of the source.

One test relates to Myzus persicae. Put plainly: Leaf disc spray test, 24-well plate, mortality after 6 days (Table 2.3). In kind it is in vivo. As to the method: 2.2 Myzus persicae (Green Peach Aphid)
Sunflower leaf discs were placed on agar in a 24-well microtiter plate and sprayed with test solutions. After drying, the leaf discs were infested with an aphid population of mixed ages. After an incubation period of 6 days, samples were checked for mortality.

The next test concerns Heliothis virescens. Put plainly: Egg and larval mortality on artificial diet, 24-well plate, 4 days. In kind it is in vivo. As to the method: 2.1 Heliothis virescens (Tobacco Budworm)
Eggs (0-24 h old) were placed in a 24-well microtiter plate on artificial diet and treated with test solutions by pipetting. After an incubation period of 4 days, samples were checked for egg mortality and larval mortality.

A further test deals with Tetranychus urticae. The test is described as follows: Leaf disc spray test, 24-well plate, mortality after 6 days (Table 2.2). In kind it is in vivo. As to the method: 2.3 Tetranychus urticae (Two-Spotted Spider Mite)
Bean leaf discs were placed on agar in 24-well microtiter plates sprayed with test solutions. After drying, the leaf discs were infested with a mite population of mixed ages. After an incubation period of 6 days, samples were checked for larval mortality, and adult mortality.

The next test has as its system Pyrenophora teres. The test is described as follows: In vitro antifungal checkerboard test, fungal growth by OD450 in 96-well microtiter plates. In kind it is cell-based. Conditions: for Sedaxane Inhibition (%): Sedaxane alone. As to the method:
(§1) In vitro antifungal activity of fungicides in combination with a compound of formula (II) was evaluated in 96 well-microtiter plate system using the checkerboard method (Vitale, R. G, Afeltra, J., and Dannaoui, E. 2005: Methods in Molecular Medicine, Vol. 118, Antifungal Agents: Methods and Protocols p. 143-152). Active ingredients were two-fold serially diluted in DMSO and mixed with double strength Potato Dextrose Broth or Alkyl Ester agar (AE medium, Miguez, M., Reeve, C., Wood, P. M. and Hollomon, D. W. (2004), Alternative oxidase reduces the sensitivity of Mycosphaerella graminicola to QOI fungicides. Pest. Manag. Sci., 60: 3-7) before filled into wells according to the checkerboard format. Each dilution well containing was inoculated with fungal spore suspension to receive a final concentration of 1×10^4 spores/ml per well. Wells of last column containing only medium and spore suspension were included as control. Three replicated microtiter plates were used in each test system. Fungal growth in each well of the micro-plates was assessed spectrophotometrically at OD450 nm (16-scan point spectrophotometer, Tecan) after inoculation [OD(0 h)=background value] and after an incubation period of 72 h [OD(72 h)] at 25° C. in the dark. Fungal growth was described as increase in OD450 nm during the time interval from 0 h to 72 h [OD(72 h)-OD(0 h)]. Fungal growth in each well of the micro-plates was assessed spectrophotometrically at OD450 nm (16-scan point spectrophotometer, Tecan) after inoculation and after an incubation period of 3-6 days at 25° C. in the dark. Fungal growth was described as increase in OD450 nm during incubation period.

A further test concerns Fusarium culmorum. The description is as above. In kind it is cell-based. As to the method:
as §1

A further test concerns Aspergillus parasiticus. The description is as above. In kind it is cell-based. Particulars: for Azoxystrobin Inhibition (%): Azoxystrobin alone. How it is done:
as §1

Test [1] concerns Fusarium culmorum; Aspergillus parasiticus; Pyrenophora teres. Put plainly: In vitro antifungal checkerboard test, overall statement on Tables 1.1 to 1.5. In kind it is cell-based. How it is done: as §1
[2] abbreviates: Prothioconazole alone, read-out: Prothioconazole Inhibition (%).
[3] abbreviates: Formula (II) 0.000003 ppm alone.
The mark [4] stands for this setting: Compound II alone, read-out: Compound II Inhibition (%).
Setting [5] is: Tebuconazole alone, read-out: Tebuconazole Inhibition (%).
[6] abbreviates: Thiabendazole alone, read-out: Thiabendazole Inhibition (%).

On to `CN1COCN(Cc2cnc(Cl)s2)/C1=N\[N+](=O)[O-]` [Thiamethoxam, thiamethoxam, reference compound], for which the “% control (average of 2 reps)” value in the test on Myzus persicae (Thiamethoxam 3 ppm alone) is recorded as 100%.
For the compound `O=[N+]([O-])NC1=NCCN1Cc1ccc(Cl)nc1` [Imidacloprid, imidacloprid, reference compound], the “% control (average of 2 reps)” value in the test on Myzus persicae (Imidacloprid 1.6 ppm alone) and with Heliothis virescens (Imidacloprid 200 ppm alone) was 100% in each case.
Consider `Cc1c(F)c(F)c(COC(=O)[C@@H]2[C@H](/C=C(\Cl)C(F)(F)F)C2(C)C)c(F)c1F` (racemic) [Tefluthrin, tefluthrin, reference compound], for which the entries for the “% control (average of 2 reps)” value in the test on Heliothis virescens (Tefluthrin 100 ppm alone) and in the test with Tetranychus urticae (Tefluthrin 100 ppm alone) were 95% and 90%, respectively.
`Cn1cc(C(=O)Nc2ccccc2C2CC2C2CC2)c(C(F)F)n1` (centres unmarked) [Sedaxane, sedaxane, reference compound]: the “Sedaxane Inhibition (%)” value in the test on Pyrenophora teres (4 ppm) was determined as 62.5%; in the test with Pyrenophora teres (8 ppm), 81.2%; in the test on Pyrenophora teres (16 ppm) it was 82.1%; with Pyrenophora teres (32 ppm), 85.9%; in the test with Pyrenophora teres (64 ppm), 88.1%.
Consider `CC(c1ccc(C(F)(F)F)nc1)S(C)(=O)=NC#N` (centres unmarked) [Sulfoxaflor, sulfoxaflor, reference compound], for which, in the test with Myzus persicae (Sulfoxaflor 0.8 ppm alone), the “% control (average of 2 reps)” value is listed as 100%.
For abamectin [reference compound], the results for the “% control (average of 2 reps)” value in the test on Heliothis virescens (Abamectin 3 ppm alone) and in the test with Tetranychus urticae (Abamectin 0.2 ppm alone) were 95% and 100%, respectively.
Take `CNC(=O)c1cc(C#N)cc(C)c1NC(=O)c1cc(Br)nn1-c1ncccc1Cl` [Cyantraniliprole, cyantraniliprole, reference compound]: the “% control (average of 2 reps)” value with Heliothis virescens (Cyantraniliprole 0.8 ppm alone) was found to be 100%; in the test on Tetranychus urticae (Cyantraniliprole 100 ppm alone), 95%.
For the compound `OC(Cc1ccccc1Cl)(Cn1nc[nH]c1=S)C1(Cl)CC1` (centres unmarked) [Prothioconazole, prothioconazole, reference compound], in the test with Fusarium culmorum (setting [2]), the inhibition (in general, how much of the control response was suppressed) at 64 ppm was found to be 97.3% and the inhibition at 128 ppm is 95%.
As to `CNC(=O)c1cc(Cl)cc(C)c1NC(=O)c1cc(Br)nn1-c1ncccc1Cl` [Chlorantraniliprole, chlorantraniliprole, reference compound], the “% control (average of 2 reps)” value in the test with Heliothis virescens (Chlorantraniliprole 0.4 ppm alone) is reported as 90%; with Tetranychus urticae (Chlorantraniliprole 400 ppm alone), 95%.
As for `CO/C=C(/C(=O)OC)c1ccccc1Oc1cc(Oc2ccccc2C#N)ncn1` [Azoxystrobin, azoxystrobin, reference compound], the “Azoxystrobin Inhibition (%)” value in the test with Aspergillus parasiticus (8 ppm) is given as 82.8%; in the test with Aspergillus parasiticus (16 ppm) it was 84.5%; in the test with Aspergillus parasiticus (32 ppm), 78.5%; in the test with Aspergillus parasiticus (64 ppm) it was 60.8%.
On to `CC1=C[C@H](O/C=C2/C(=O)NC3c4ccccc4CC23)OC1=O` (some centres unmarked) [Compound II], for which the “% control (average of 2 reps)” value in the test on Myzus persicae (setting [3]), in the test with Myzus persicae (Formula (II) 0.0003 ppm alone), with Myzus persicae (Formula (II) 0.03 ppm alone), with Myzus persicae (Formula (II) 1 ppm alone), in the test on Heliothis virescens (setting [3]) and with Heliothis virescens (Formula (II) 0.0003 ppm alone) was 0% each time. For the same compound, the “% control (average of 2 reps)” value in the test on Heliothis virescens (Formula (II) 0.03 ppm alone), in the test on Heliothis virescens (Formula (II) 1 ppm alone), in the test with Tetranychus urticae (setting [3]), in the test with Tetranychus urticae (Formula (II) 0.0003 ppm alone), in the test with Tetranychus urticae (Formula (II) 0.03 ppm alone) and in the test on Tetranychus urticae (Formula (II) 1 ppm alone) was 0% throughout. For the same compound, the “antagonism of the activity of the insecticides” value in the test on Myzus persicae (mixtures of Table 2.3), in the test with Heliothis virescens (mixtures of Table 2.1) and with Tetranychus urticae (mixtures of Table 2.2) was “did not antagonise the activity of any of the insecticides” each time. Further, in the test on Fusarium culmorum (Compound II alone, 0.0625 ppm), the inhibition at 0.0625 ppm was 1.8%. The inhibition at 0.125 ppm in the test with Fusarium culmorum (Compound II alone, 0.125 ppm) amounted to 6.5%; in the test with Aspergillus parasiticus (Aspergillus parasiticus, Compound II alone, 0.125 ppm), 8.7%. Also, the inhibition at 0.25 ppm in the test on Fusarium culmorum (Compound II alone, 0.25 ppm) came to 3.2%; with Aspergillus parasiticus (Aspergillus parasiticus, Compound II alone, 0.25 ppm), 11.3%; in the test on Pyrenophora teres (Pyrenophora teres, Compound II alone, 0.25 ppm), 0%. Further, the inhibition at 0.5 ppm with Fusarium culmorum (Compound II alone, 0.5 ppm) was determined as 1.2%; in the test with Aspergillus parasiticus (Aspergillus parasiticus, Compound II alone, 0.5 ppm), 9.3%; in the test on Pyrenophora teres (Pyrenophora teres, Compound II alone, 0.5 ppm), 0%. For the same compound, the inhibition at 1 ppm worked out at 0% with Fusarium culmorum (Compound II alone, 1 ppm); 9.6% in the test with Aspergillus parasiticus (Aspergillus parasiticus, Compound II alone, 1 ppm); 0% in the test with Pyrenophora teres (Pyrenophora teres, Compound II alone, 1 ppm). Besides, the inhibition at 2 ppm in the test on Fusarium culmorum (Compound II alone, 2 ppm) turned out to be 2.5%; in the test on Aspergillus parasiticus (Aspergillus parasiticus, Compound II alone, 2 ppm), 0.5%; in the test with Pyrenophora teres (Pyrenophora teres, Compound II alone, 2 ppm), 0%. The inhibition at 4 ppm with Fusarium culmorum (setting [4]) is 1.3%; with Aspergillus parasiticus (Aspergillus parasiticus, Compound II alone, 4 ppm) it was 5.4%; in the test with Pyrenophora teres (Pyrenophora teres, Compound II alone, 4 ppm), 0%. Besides, the inhibition at 8 ppm is 0% in the test on Fusarium culmorum (setting [4]); 20.5% in the test with Aspergillus parasiticus (Aspergillus parasiticus, Compound II alone, 8 ppm); 0% with Pyrenophora teres (Pyrenophora teres, Compound II alone, 8 ppm). In addition, the inhibition at 16 ppm was found to be 0% in the test on Fusarium culmorum (Compound II alone, 16 ppm); 22.1% in the test with Aspergillus parasiticus (Aspergillus parasiticus, Compound II alone, 16 ppm); 0% in the test on Pyrenophora teres (Pyrenophora teres, Compound II alone, 16 ppm). Further, the inhibition at 32 ppm in the test on Fusarium culmorum (Compound II alone, 32 ppm) was 0%; in the test on Aspergillus parasiticus (Aspergillus parasiticus, Compound II alone, 32 ppm) it was 2%; with Pyrenophora teres (Pyrenophora teres, Compound II alone, 32 ppm), 0%. Besides, the inhibition at 64 ppm turned out to be 11.3% in the test on Aspergillus parasiticus (Aspergillus parasiticus, Compound II alone, 64 ppm) and 0% in the test with Pyrenophora teres (Pyrenophora teres, Compound II alone, 64 ppm). Also, the inhibition at 128 ppm in the test with Pyrenophora teres (Pyrenophora teres, Compound II alone, 128 ppm) was 3.9%. Also, in test [1] (at some rates), the “synergistic effect on the activity of fungicides” value is “provides a synergistic effect on the activity of fungicides at some rates”. In addition, the “fungicidal activity of the compound of formula (II) alone” value in test [1] (in general, Tables 1.1 to 1.5) was “did not cause any, or only very low levels of fungicidal activity”. For the same compound, the “antagonism of the activity of the fungicides tested” value in test [1] (in general, mixtures of Tables 1.1 to 1.5) is recorded as “did not antagonise the activity of any of the fungicides tested”.
Consider `CC(C)(C)C(O)(CCc1ccc(Cl)cc1)Cn1cncn1` (centres unmarked) [Tebuconazole, tebuconazole, reference compound], for which, in the test on Fusarium culmorum (setting [5]), the inhibition at 4 ppm turned out to be 97.1% and the inhibition at 8 ppm amounted to 90.1%.
For `CN/C(=N\[N+](=O)[O-])NCc1cnc(Cl)s1` [Clothianidin, clothianidin, reference compound], the “% control (average of 2 reps)” value with Myzus persicae (Clothianidin 3 ppm alone) and in the test on Heliothis virescens (Clothianidin 50 ppm alone) was 100% in each case.
For the compound `c1ccc2[nH]c(-c3cscn3)nc2c1` [Thiabendazole, thiabendazole, reference compound], in the test on Fusarium culmorum (setting [6]), the inhibition at 64 ppm is 98.3% and the inhibition at 128 ppm is 99.4%.
